Assay results as given in the supplement of paper PMC10307832.

Tests used:
Experiment in all cases: relative viability (nuclei count vs DMSO), 5 days (fraction); higher = more cells survive
[1] = compound: C1=CC=C2C(=C1)N=C(S2)C(C#N)C3=NC(=NC=C3)NCCC4=CN=CC=C4 + C[C@]1(O)C[C@@H](c2nc(-c3ccc4ccc(-c5ccccc5)nc4c3)c3c(N)nccn32)C1 [Linsitinib] (partner 1 µM)
How it was run: (§1)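 For relative viability, nuclei counts in treated wells were divided by those in vehicle wells. Lung cancer cell lines had been pin-tool dosed in 1536-well plates the day after seeding and cultured for 5 days, then fixed and stained in one step (final 0.05% Triton X-100, 1% formaldehyde, 1 ug/ml Hoechst) and imaged at 4×. Doses were one drug alone or a fixed anchor-drug dose plus five library-drug doses (not always all listed) in √10 steps, and values are duplicate-plate medians.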

[2] = compound: C1=CC=C2C(=C1)N=C(S2)C(C#N)C3=NC(=NC=C3)NCCC4=CN=CC=C4 + NC(=O)Nc1cc(-c2cccc(F)c2)sc1C(=O)N[C@H]1CCCNC1 [AZD7762] (partner 0.2 µM)
How it was run: as §1

Vandetanib + Alpelisib = compound: COc1cc2/c(=N/c3ccc(Br)cc3F)nc[nH]c2cc1OCC1CCN(C)CC1 [Vandetanib] + Cc1nc(NC(=O)N2CCC[C@H]2C(N)=O)sc1-c1ccnc(C(C)(C)C(F)(F)F)c1 [Alpelisib] (partner 2 µM)
How it was run: as §1

NVP-TAE684 + Dasatinib = compound: COc1cc(N2CCC(N3CCN(C)CC3)CC2)ccc1Nc1ncc(Cl)c(Nc2ccccc2S(=O)(=O)C(C)C)n1 [NVP-TAE684] + Cc1nc(Nc2ncc(C(=O)Nc3c(C)cccc3Cl)s2)cc(N2CCN(CCO)CC2)n1 [Dasatinib] (partner 0.075 µM)
How it was run: as §1

Row | Cell Line | relative viability ([1]; first compound 0.005 µM) | relative viability ([1]; first compound 0.01581 µM) | relative viability ([1]; first compound 0.05 µM) | relative viability ([1]; first compound 0.1581 µM) | relative viability ([1]; first compound 0.5 µM) | relative viability ([2]; first compound 0.005 µM) | relative viability ([2]; first compound 0.01581 µM) | relative viability ([2]; first compound 0.05 µM) | relative viability ([2]; first compound 0.1581 µM) | relative viability ([2]; first compound 0.5 µM) | relative viability (Vandetanib + Alpelisib; first compound 0.02 µM) | relative viability (Vandetanib + Alpelisib; first compound 0.06325 µM) | relative viability (Vandetanib + Alpelisib; first compound 0.2 µM) | relative viability (Vandetanib + Alpelisib; first compound 0.6325 µM) | relative viability (Vandetanib + Alpelisib; first compound 2 µM) | relative viability (NVP-TAE684 + Dasatinib; first compound 0.2 µM) | relative viability (NVP-TAE684 + Dasatinib; first compound 0.6325 µM) | relative viability (NVP-TAE684 + Dasatinib; first compound 2 µM)
1 | NCI-H2087 | 1.03 | 0.954 | 1.07 | 1.1 | 0.915 | 1.42 | 1.39 | 1.41 | 1.45 | 1.06 | 0.953 | 1.17 | 1.28 | 1.04 | 1.07 | 0.573 | 0.694 | 0.225
2 | NCI-H2126 | 0.748 | 0.739 | 0.705 | 0.705 | 0.665 | 0.969 | 1.06 | 1.04 | 1.07 | 0.974 | 0.787 | 0.74 | 0.757 | 0.737 | 0.674 | 0.568 | 0.39 | 0.375
3 | NCI-H2347 | 0.899 | 0.854 | 0.954 | 0.953 | 0.966 | 0.782 | 0.815 | 0.716 | 0.839 | 0.729 | 1.01 | 0.591 | 1.05 | 1.28 | 1.03 | 0.501 | 0.307 | 0.293
4 | NCI-H2405 | 0.817 | 0.889 | 0.847 | 0.911 | 1.01 | 0.705 | 0.66 | 0.832 | 0.829 | 0.48 | 0.813 | 0.405 | 0.733 | 0.958 | 0.677 | 0.226 | 0.178 | 0.154
5 | NCI-H3122 | 1.02 | 0.992 | 1.04 | 1.07 | 0.999 | 0.975 | 1.16 | 0.96 | 1 | 1 | 0.781 | 0.756 | 0.778 | 0.765 | 0.822 | 0.239 | 0.119 | 0.0896
6 | PC-3 [JPC-3] | 0.898 | 0.983 | 0.957 | 0.942 | 0.965 | 0.702 |  | 0.822 | 0.997 | 0.654 | 1.03 | 1 | 0.982 | 0.736 | 0.507 | 0.942 | 0.979 | 0.649
7 | PC-14 | 0.914 | 1.07 | 0.972 | 1.08 | 0.896 | 0.334 | 0.238 | 0.396 | 0.514 | 0.302 | 0.922 | 0.846 | 0.911 | 0.447 | 0.182 | 0.242 | 0.11 | 0.0369
8 | RERF-LC-KJ | 1.01 | 0.877 | 0.853 | 0.861 | 0.781 | 0.984 | 0.977 | 1.02 | 1.23 | 0.964 | 0.82 | 0.694 | 0.833 | 0.774 | 0.678 | 0.667 | 0.596 | 0.327
